We go through 3 compounds from patent US20050020665A1, “Pharmaceutical composition for treating multiple sclerosis” (priority 2001, published 2005).

Read-outs that look alike come from different tables or passages of the source.

The test system of assay [1] is experimental allergic encephalomyelitis (EAE). The note with it: cited from earlier work.
The test system of assay [2] is MS patients. The settings on record: cited from earlier work.
Assay [3] relates to inflammatory reactions of MS in the animal model. The settings on record: cited from earlier work.
For assay [4], the system named is MS patients. The settings on record: cited from earlier work. This is another data set of the same source.
The subject of assay [5] is patients having clinically active MS. In words: treatment trial of MS patients with zileuton (Zyflo Filmtab), three years, with brain nuclear magnetic resonance using Magnevist. The class given is in vivo, humans. The protocol: 15 patients having clinically active MS were treated with zileuton in a treatment trial. 15 MS patients without this treatment served as a control. One tablet of Zyflo™Filmtab® was administered to each four times a day.

Setting [6] is: 15 MS patients, one Zyflo Filmtab tablet four times a day, three years, compared with 15 MS patients without this treatment.

For the compound `Cn1cnc([N+](=O)[O-])c1Sc1ncnc2[nH]cnc12` [azothioprin], the “effect in the EAE animal test” value in assay [1] is listed as “showed promising indications”. Further, the “effect in the treatment of MS patients” value in the assay with MS patients [2] is reported as “not convincing”.
On to `O=C(O)c1cc(/N=N/c2ccc(S(=O)(=O)Nc3ccccn3)cc2)ccc1O` [azulfidine], for which the “effect in the animal model (suppression of inflammatory reactions of MS)” value in assay [3] is given as “successful in the animal model”. Besides, the “effect of treatment in MS patients” value in the assay on MS patients [4] (first 18 months of treatment, double blind study) is listed as “exceptionally beneficial effect could be proven”; in the assay with MS patients [4] (three years after the end of the study), “this effect could no longer be proven”.
Regarding `CC(c1cc2ccccc2s1)N(O)C(N)=O` (centres unmarked) [zileuton, 1-(1-benzo[b]thien-2-ylethyl)-1-hydroxy urea], in assay [5] (setting [6]), the chronic progression result is given as “significantly decreased” and the frequency of attacks entry is recorded as “significantly decreased”. Besides, the “new or acute centres of inflammation absorbing the contrast agent (brain nuclear magnetic resonance)” value in assay [5] (every six months, contrast agent Magnevist) was “No new or acute centres absorbing the contrast agent could be determined”.
